In ChEMBL document CHEMBL4052619, “First example of peptides targeting the dimer interface of Leishmania infantum trypanothione reductase with potent in vitro antileishmanial activity” (Eur J Med Chem, 2017):
Activity calls are given as the source filed them. The calls are words filed in the database; no cut-off is given here. Bridge positions count the residues as written; N and C are the ends. Square brackets hold non-standard residues; d marks the D form. Peptide text beside a SMILES is read from it. ξ: configuration not given here. ξQ = NC(=O)CCC(N)C(=O)O; ξNle = CCCCC(N)C(=O)O; Aib = CC(C)(N)C(=O)O

How the values were obtained:
Leishmania infantum [1] = experiment: Antileishmanial activity against Leishmania infantum axenic amastigotes assessed as induction of cell death after 24 hrs by propidium iodide staining based flow cytometry; type: functional
Leishmania infantum [2] = experiment: Antileishmanial activity against Leishmania infantum MCAN/ES/89/IPZ229/1/89 promastigotes assessed as induction of cell death after 24 hrs by propidium iodide staining based flow cytometry; type: functional; conditions: MCAN/ES/89/IPZ229/1/89, 24 h
[3] = Cytotoxicity against human THP1 cells assessed as induction of cell death after 24 hrs by propidium iodide staining based flow cytometry; conditions: THP-1 cells, read-out: LC50
Trypanothione reductase [4] = target: T1, Trypanothione reductase (Leishmania infantum, UniProt A4HSF7); experiment: Inhibition of recombinant Leishmania infantum TryR preincubated for 10 mins followed by T[S]2 substrate addition and measured after 1 hr in presence of NADPH
Trypanothione reductase [5] = target: T1, Trypanothione reductase; experiment: Inhibition of recombinant His/FLAG-tagged Leishmania infantum TryR dimerization assessed as dimer disruption after 1 hr by ELISA
Leishmania infantum [6] = experiment: Antileishmanial activity against Leishmania infantum axenic amastigotes assessed as induction of cell death at 25 uM after 24 hrs by propidium iodide staining based flow cytometry; type: functional
Leishmania infantum [7] = experiment: Antileishmanial activity against Leishmania infantum MCAN/ES/89/IPZ229/1/89 promastigotes assessed as induction of cell death at 25 uM after 24 hrs by propidium iodide staining based flow cytometry; type: functional

T1 sequence (A4HSF7 whole entry): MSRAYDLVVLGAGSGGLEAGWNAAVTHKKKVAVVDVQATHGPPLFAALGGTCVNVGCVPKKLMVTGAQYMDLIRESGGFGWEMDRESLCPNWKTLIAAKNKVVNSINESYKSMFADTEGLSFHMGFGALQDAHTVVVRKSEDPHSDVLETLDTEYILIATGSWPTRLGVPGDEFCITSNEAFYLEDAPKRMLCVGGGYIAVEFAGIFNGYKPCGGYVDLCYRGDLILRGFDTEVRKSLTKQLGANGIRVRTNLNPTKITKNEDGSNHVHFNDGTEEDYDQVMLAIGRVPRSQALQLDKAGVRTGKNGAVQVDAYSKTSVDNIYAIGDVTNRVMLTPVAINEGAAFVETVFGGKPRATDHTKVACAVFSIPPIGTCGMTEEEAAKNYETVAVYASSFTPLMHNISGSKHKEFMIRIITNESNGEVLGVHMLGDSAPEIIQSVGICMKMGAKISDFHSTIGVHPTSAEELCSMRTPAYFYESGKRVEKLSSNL

Compound | LC50 (Leishmania infantum [1]) [µM] | LC50 (Leishmania infantum [2]) [µM] | CC50 at 24 h [3] [µM] | IC50 (Trypanothione reductase [4]) [µM] | IC50 (Trypanothione reductase [5]) [µM] | Activity (Leishmania infantum [6]) | Activity (Leishmania infantum [7])
CC(=O)N[C@@H](CCCNC(=N)N)C(=O)N[C@@H](CCCNC(=N)N)C(=O)N[C@@H](CCCNC(=N)N)C(=O)N[C@@H](CCCNC(=N)N)C(=O)N[C@@H](CCCNC(=N)N)C(=O)N[C@@H](CCCNC(=N)N)C(=O)N[C@@H](CCCNC(=N)N)C(=O)N[C@@H](CCCNC(=N)N)C(=O)N[C@@H](CCCNC(=N)N)C(N)=O | > 25 | > 25 | > 25 | – | – | – | –
CC[C@H](C)[C@H](NC(=O)CNC(=O)[C@@H](NC(=O)[C@H](CO)NC(=O)[C@H](CCC(N)=O)NC(=O)[C@@H](NC(=O)[C@@H](NC(=O)[C@H](CCCCN)NC(=O)[C@@H]1CCCN1C(C)=O)[C@@H](C)CC)[C@@H](C)CC)C(C)C)C(N)=O | – | – | – | 3.7 | 20.8 | inactive | inactive
CCCCC(NC(=O)[C@H](CCCCN)NC(=O)C(CCCC)NC(=O)[C@H](CO)NC(=O)[C@@H](NC(=O)CNC(=O)[C@@H](NC(=O)[C@H](CO)NC(=O)[C@H](CCC(N)=O)NC(=O)[C@@H](NC(=O)[C@@H](NC(=O)[C@H](CCCCN)NC(=O)[C@@H]1CCCN1C(C)=O)[C@@H](C)CC)[C@@H](C)CC)C(C)C)[C@@H](C)CC)C(=O)N[C@@H](CCCNC(=N)N)C(=O)N[C@@H](CCCNC(=N)N)C(=O)N[C@@H](CCCNC(=N)N)C(=O)N[C@@H](CCCNC(=N)N)C(=O)N[C@@H](CCCNC(=N)N)C(=O)N[C@@H](CCCNC(=N)N)C(=O)N[C@@H](CCCNC(=N)N)C(=O)N[C@@H](CCCNC(=N)N)C(=O)N[C@@H](CCCNC(=N)N)C(N)=O (stereo partly specified) | 2.1 | 4.4 | 0.8 | – | – | – | –
CC(=O)NCC(=O)N[C@@H](CCCNC(=N)N)C(=O)N[C@@H](CCCCN)C(=O)N[C@@H](CCCCN)C(=O)N[C@@H](CCCNC(=N)N)C(=O)N[C@@H](CCCNC(=N)N)C(=O)N[C@@H](CCC(N)=O)C(=O)N[C@@H](CCCNC(=N)N)C(=O)N[C@@H](CCCNC(=N)N)C(=O)N[C@@H](CCCNC(=N)N)C(=O)N1CCC[C@H]1C(=O)N1CCC[C@H]1C(=O)N[C@@H](CCC(N)=O)C(N)=O | > 25 | > 25 | > 25 | – | – | – | –
CCCCC(NC(=O)[C@@H]1CCCCNC(=O)CC[C@H](NC(=O)[C@@H](NC(=O)[C@H](CO)NC(=O)[C@H](CCC(N)=O)NC(=O)[C@@H](NC(=O)[C@@H](NC(=O)[C@H](CCCCN)NC(=O)[C@@H]2CCCN2C(C)=O)[C@@H](C)CC)[C@@H](C)CC)C(C)C)C(=O)N[C@@H]([C@@H](C)CC)C(=O)N[C@@H](CO)C(=O)NC(CCCC)C(=O)N1)C(N)=O (stereo partly specified) | – | – | – | 27 | 12.1 | inactive | inactive
CCCCC(NC(=O)[C@H](CCCCN)NC(=O)C(CCCC)NC(=O)[C@H](CO)NC(=O)[C@@H](NC(=O)[C@H](CCC(=O)O)NC(=O)[C@@H](NC(=O)[C@H](CO)NC(=O)[C@H](CCC(N)=O)NC(=O)[C@@H](NC(=O)[C@@H](NC(=O)[C@H](CCCCN)NC(=O)[C@@H]1CCCN1C(C)=O)[C@@H](C)CC)[C@@H](C)CC)C(C)C)[C@@H](C)CC)C(N)=O (stereo partly specified) | – | – | – | > 75 | – | inactive | inactive
CCCCC(NC(=O)[C@H](CCCCN)NC(=O)C(CCCC)NC(=O)[C@H](CO)NC(=O)[C@@H](NC(=O)CNC(=O)[C@@H](NC(=O)[C@H](CO)NC(=O)[C@H](CCC(N)=O)NC(=O)[C@@H](NC(=O)[C@@H](NC(=O)[C@H](CCCCN)NC(=O)[C@@H]1CCCN1C(=O)[C@H](CCC(N)=O)NC(=O)[C@@H]1CCCN1C(=O)[C@@H]1CCCN1C(=O)[C@H](CCCNC(=N)N)NC(=O)[C@H](CCCNC(=N)N)NC(=O)[C@H](CCCNC(=N)N)NC(=O)[C@H](CCC(N)=O)NC(=O)[C@H](CCCNC(=N)N)NC(=O)[C@H](CCCNC(=N)N)NC(=O)[C@H](CCCCN)NC(=O)[C@H](CCCCN)NC(=O)[C@H](CCCNC(=N)N)NC(=O)CNC(C)=O)[C@@H](C)CC)[C@@H](C)CC)C(C)C)[C@@H](C)CC)C(N)=O (stereo partly specified) (Ac-GRKKRRQRRRPPQPKIIQSVGIS[ξNle]K[ξNle]-NH2) | 1.5 | 4.3 | 1.2 | – | – | – | –
CCCCC(NC(=O)[C@H](CCCCN)NC(=O)C(CCCC)NC(=O)[C@H](CO)NC(=O)[C@@H](NC(=O)CNC(=O)[C@H](CCCCN)NC(=O)[C@H](CO)NC(=O)[C@H](CCC(N)=O)NC(=O)[C@@H](NC(=O)[C@H](CCC(=O)O)NC(=O)[C@H](CCCCN)NC(=O)[C@@H]1CCCN1C(C)=O)[C@@H](C)CC)[C@@H](C)CC)C(N)=O (stereo partly specified) (Ac-PKEIQSKGIS[ξNle]K[ξNle]-NH2) | – | – | – | > 75 | – | inactive | inactive
CCCCC(NC(=O)[C@H](CCCCN)NC(=O)C(CCCC)NC(=O)[C@H](CO)NC(=O)[C@@H](NC(=O)[C@H](CCCCN)NC(=O)[C@@H](NC(=O)[C@H](CO)NC(=O)[C@H](CCC(N)=O)NC(=O)[C@H](CCC(=O)O)NC(=O)[C@@H](NC(=O)[C@H](CCCCN)NC(=O)[C@@H]1CCCN1C(C)=O)[C@@H](C)CC)C(C)C)[C@@H](C)CC)C(N)=O (stereo partly specified) (Ac-PKIEQSVKIS[ξNle]K[ξNle]-NH2) | – | – | – | > 75 | – | inactive | inactive
CCCCC(NC(=O)[C@H](CCCCN)NC(=O)[C@H](CCCCN)NC(=O)[C@H](CO)NC(=O)[C@@H](NC(=O)CNC(=O)[C@H](CCC(=O)O)NC(=O)[C@H](CO)NC(=O)[C@H](CCC(N)=O)NC(=O)[C@@H](NC(=O)[C@@H](NC(=O)[C@H](CCCCN)NC(=O)[C@@H]1CCCN1C(C)=O)[C@@H](C)CC)[C@@H](C)CC)[C@@H](C)CC)C(N)=O (stereo partly specified) (Ac-PKIIQSEGISKK[ξNle]-NH2) | – | – | – | > 75 | – | inactive | inactive
CCCCC(NC(=O)[C@H](CCCCN)NC(=O)C(CCCC)NC(=O)[C@H](CO)NC(=O)[C@@H](NC(=O)CNC(=O)[C@@H]1CCCCNC(=O)CC[C@H](NC(=O)[C@H](CCCCN)NC(=O)[C@@H]2CCCN2C(=O)[C@H](CCCNC(=N)N)NC(=O)[C@H](CCCNC(=N)N)NC(=O)[C@H](CCCNC(=N)N)NC(=O)[C@H](CCCNC(=N)N)NC(=O)[C@H](CCCNC(=N)N)NC(=O)[C@H](CCCNC(=N)N)NC(=O)[C@H](CCCNC(=N)N)NC(=O)[C@H](CCCNC(=N)N)NC(=O)[C@H](CCCNC(=N)N)NC(C)=O)C(=O)N[C@@H]([C@@H](C)CC)C(=O)N[C@@H](CCC(N)=O)C(=O)N[C@@H](CO)C(=O)N1)[C@@H](C)CC)C(N)=O (stereo partly specified) (Ac-RRRRRRRRRPKEIQSKGIS[ξNle]K[ξNle]-NH2; lactam 12-16) | 2.8 | 3.5 | 2.5 | – | – | – | –
CCCCC(NC(=O)[C@H](CCCCN)NC(=O)C(CCCC)NC(=O)[C@H](CO)NC(=O)[C@@H](NC(=O)CNC(=O)[C@@H](NC(=O)[C@H](CO)NC(=O)[C@H](CCC(N)=O)NC(=O)[C@@H](NC(=O)[C@@H](NC(=O)[C@H](CCCCN)NC(=O)[C@@H]1CCCN1C(=O)[C@H](CCCNC(=N)N)NC(=O)[C@H](CCCNC(=N)N)NC(=O)[C@H](CCCNC(=N)N)NC(=O)[C@H](CCCNC(=N)N)NC(=O)[C@H](CCCNC(=N)N)NC(=O)[C@H](CCCNC(=N)N)NC(=O)[C@H](CCCNC(=N)N)NC(=O)[C@H](CCCNC(=N)N)NC(=O)[C@H](CCCNC(=N)N)NC(C)=O)[C@@H](C)CC)[C@@H](C)CC)C(C)C)[C@@H](C)CC)C(N)=O (stereo partly specified) (Ac-RRRRRRRRRPKIIQSVGIS[ξNle]K[ξNle]-NH2) | 3.5 | 4.6 | 1.7 | – | – | – | –
CCCCC(NC(=O)[C@H](CCCCN)NC(=O)C(CCCC)NC(=O)[C@H](CO)NC(=O)[C@@H](NC(=O)CNC(=O)[C@@H]1CCCCNC(=O)CC[C@H](NC(=O)[C@H](CCCCN)NC(=O)[C@@H]2CCCN2C(=O)C(C)(C)NC(=O)[C@H](CCCNC(=N)N)NC(=O)[C@H](CCCNC(=N)N)NC(=O)C(C)(C)NC(=O)[C@H](CCCNC(=N)N)NC(=O)[C@H](CCCNC(=N)N)NC(=O)C(C)(C)NC(=O)[C@H](CCCNC(=N)N)NC(=O)[C@H](CCCNC(=N)N)NC(C)=O)C(=O)N[C@@H]([C@@H](C)CC)C(=O)NC(CCC(N)=O)C(=O)N[C@@H](CO)C(=O)N1)[C@@H](C)CC)C(N)=O (stereo partly specified) (Ac-RR[Aib]RR[Aib]RR[Aib]PKEI[ξQ]SKGIS[ξNle]K[ξNle]-NH2; lactam 12-16) | 10.4 | 6.4 | 5.2 | – | – | – | –
CCCCCCCCCCCCCCCCCCOCC(COP(=O)([O-])OCC[N+](C)(C)C)OC (stereo unspecified) [EDELFOSINE] | 0.6 | 9 | 1 | – | – | – | –
CCCCCCCCCCCCCCCCOP(=O)([O-])OCC[N+](C)(C)C [MILTEFOSINE] | 2 | 47.6 | 19 | – | – | – | –
Ac-PKEIQSKGI-NH2 | – | – | – | > 75 | – | inactive | inactive
Ac-PKIEQSVKI-NH2 | – | – | – | 47.4 | – | inactive | inactive
Ac-RRRRRRRRRKMGISSMVQPKII-NH2 | > 25 | > 25 | > 25 | – | – | – | –
